How the values were obtained:
[1] = test system: human corneal epithelial cells (HCECs); test: MQ on IL-6 production in HCECs in response to TLR agonists; type: cell-based; conditions: for production and secretion of IL6: MQ 50 μM overnight
Experimental: FIG. 26. MQ Reduces IL-6 Response to Toll 3 and Toll 5 Agonist. HCECs were cultured at a uniform density and allowed to adhere. Cells were then incubated overnight in MQ at a concentration of […] at 37° C. The following day, the HCECs were stimulated with FLA at a concentration of 100 ng/ml or P (I:C) at 500 μg/mL for four hours. Supernatants were collected and IL-6 concentrations were determined via ELISA.
To investigate the effects of MQ on cytokine activity, human corneal epithelial cells (HCECs) were stimulated with various TLR agonists and the production of cytokines was measured via ELISA. HCECs were seeded at a density of 2×10^5 cells/well and were treated overnight with MQ at a concentration of 50 μM and the following day they were stimulated with Flagellin (FLA) at 100 ng/ml or Poly (I:C) at a concentration of 500 μg/ml. After 4 hours, supernatant was collected and the concentration of IL-6 was determined via ELISA.
The effects of MQ on various other TLR pathways including: TLR 1/2 (PAM3CSK4), TLR 2/6 (FSL) TLR 4 (Lipopolysaccharide), TLR 7 (Imiquimod), and TLR 9 (ODN2006) was also investigated.

[2] = In vivo toxicity of JE given I.P.: serum ALT and organ histology; conditions: JE 50 μM twice daily I.P. for 3 or 5 days
Experimental: To test if JE has any toxicity, we first incubated murine macrophages with JE at different concentrations at 37° C. for two days, and determined viability of the cells. […] Further we injected the JE at 50 μM twice daily via I.P. for 3 or 5 days and then determined ALT levels in sera and examined the morphology in key organs, liver, kidney, spleen, intestines etc.

NLRP3 inflammasome = test: JE on IL-1β production by THP-1 macrophages upon NLRP3 activation; type: cell-based, human
Experimental: FIG. 22. The Effect of JE on IL-1β Production by THP-1 Macrophages. THP-1 macrophages were pretreated with JE overnight at 37° C., 5% CO2. The next day, they were primed with LPS at 500 ng/ml for 4 hours then activated with 6.5 μM of nigericin for 30 minutes at 37 C, 5% CO2. Supernatants were collected and IL-1β production with ELISA. Data are presented as mean±SEM (n=6). *p<0.05. One of two experiments is shown.
FIG. 23. The Effect of JE on IL-1β Production by THP-1 Macrophages: JE was used as a pretreatment when THP-1 macrophages were pretreated with JE overnight at 37° C., 5% CO2. The next day, they were primed with LPS at 500 ng/ml for 4 hours, then activated with 5 mM of ATP for 30 minutes at 37° C., 5% CO2. In the case when JE was used as a treatment, cells were primed with 10 ng/ml of LPS for 4 hours, then JE was added overnight at 37° C., 5% CO2. The following day, macrophages were activated with 5 mM of ATP for an hour. Supernatants were collected and IL-1β production with ELISA. Data are presented as mean±SEM (n=6). **p<0.01. One of two experiments is shown.
We similarly tested THP-1 cells as described above. […] I collected the supernatant and measured IL-1β by ELISA. […]

Molecule	production and secretion of IL6 ([1]; Flagellin (FLA) 100 ng/ml 4 hours)	production and secretion of IL6 ([1]; Poly (I:C) 500 μg/ml 4 hours)	production of IL-6 ([1]; MQ alone, 50 μM overnight, no TLR agonist)	cytokine production, other TLR pathways ([1]; PAM3CSK4, FSL, Lipopolysaccharide, Imiquimod, ODN2006, various concentrations)	tissue damage in organs by histology (liver, kidney, spleen, intestines) [2]	ALT levels in sera ([2]; vs control group)	IL-1β production upon NLRP3 activation (NLRP3 inflammasome; JE added before priming with LPS (pretreatment overnight))	IL-1β production upon NLRP3 activation (NLRP3 inflammasome; JE after priming with LPS and before adding ATP)
Prednicarbate [MQ]	reduced	reduced	not found to increase	did not exhibit any significant inhibitory effects				
CC(=O)O[C@@H]1CC[C@H]2[C@H]3CC[C@H]4CC(F)(F)CC[C@]4(C)[C@H]3CC[C@]12C [JE, 3,3-Difluoro-5-alpha-androstan-17-beta-yl acetate]					did not see any tissue damage	no significant higher levels	could decrease	still detected robust production

Source: US20250000874A1, “BACTERIAL METABOLITES AND THEIR USE IN REDUCING INFLAMMATION” (LOYOLA UNIVERSITY OF CHICAGO, priority 2023, published 2025)
